Test [1] has as its system ENR+CD organoids. Briefly: Primary screen: ATP (CellTiter-Glo 3D, CTG) cell number/viability, 2.5-D 384-well ENR+CD organoids.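 Also: compounds given at plating and again on day 3 over a 6-day differentiation from ENR+CV stem-cell-enriched precursors, ATP measured on day 6, plate median as control.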 For orientation: In ATP-based viability assays light output follows the ATP content of the culture.
Test [2] has as its system ENR+CD organoids (ISC to Paneth cell differentiation). Put plainly: Primary screen: CCh-stimulated lysozyme secretion LYZ.S, 2.5-D 384-well ENR+CD organoid differentiation. The test is classed as cell-based, mouse. The following applies: primary screen. The text has this: (§1) High-throughput screening.
Test [3] shares this test system. Briefly: Primary screen: basal (non-stimulated) lysozyme secretion LYZ.NS, 2.5-D 384-well ENR+CD organoid differentiation. In kind it is cell-based, mouse.
Description: as §1

Where [4] appears, read: primary screen, dose 0.08 uM, FC relative to plate median.
[5] abbreviates: primary screen, dose 0.40 uM, FC relative to plate median.
Setting [6] is: primary screen, dose 2.00 uM, FC relative to plate median.
Setting [7] is: primary screen, dose 10.00 uM, FC relative to plate median.
Where [8] appears, read: dose 0.08 uM, FC relative to plate median.
Setting [9] is: dose 0.40 uM, FC relative to plate median.
Setting [10] is: dose 2.00 uM, FC relative to plate median.
Where [11] appears, read: dose 10.00 uM, FC relative to plate median.
[12] abbreviates: primary screen, dose 0.08 uM, standard z score.
Setting [13] is: primary screen, dose 0.40 uM, standard z score.
[14] abbreviates: primary screen, dose 2.00 uM, standard z score.
[15] abbreviates: primary screen, dose 10.00 uM, standard z score.
[16] abbreviates: primary screen, standard z score, dose 0.08 uM.
Setting [17] is: primary screen, standard z score, dose 0.40 uM.
Setting [18] is: primary screen, standard z score, dose 2.00 uM.
[19] abbreviates: primary screen, standard z score, dose 10.00 uM.
[20] abbreviates: primary screen, 1st dose row of the treatment (0.08 uM by row order; dose not reprinted).
The mark [21] stands for this setting: primary screen, 2nd dose row of the treatment (0.40 uM by row order; dose not reprinted).
Setting [22] is: primary screen, 3rd dose row of the treatment (2.00 uM by row order; dose not reprinted).
Where [23] appears, read: primary screen, 4th dose row of the treatment (10.00 uM by row order; dose not reprinted).
[24] abbreviates: 1st dose row of the treatment (0.08 uM by row order; dose not reprinted).
[25] abbreviates: 2nd dose row of the treatment (0.40 uM by row order; dose not reprinted).
Where [26] appears, read: 3rd dose row of the treatment (2.00 uM by row order; dose not reprinted).
The mark [27] stands for this setting: 4th dose row of the treatment (10.00 uM by row order; dose not reprinted).

Turning to `Cn1cc(/C=C2\C(=O)Nc3cccnc32)c2ccccc21` [GW441756], the “Dose.FC.CTG (log2 fold change)” value is on record as 0.048 in test [1] (primary screen, dose 0.08 uM); −0.105 in test [1] (primary screen, dose 0.40 uM); 0.152 in test [1] (primary screen, dose 2.00 uM); −0.113 in test [1] (primary screen, dose 10.00 uM). Moreover, the “Z.CTG (standard z score)” value in test [1] (primary screen, dose 0.08 uM) is reported as 0.114; in test [1] (primary screen, dose 0.40 uM), −0.252; in test [1] (primary screen, dose 2.00 uM) it was 0.364; in test [1] (primary screen, dose 10.00 uM) it was −0.270. Moreover, the “Dose.FC.LYZ.S (log2 fold change)” value in test [2] (dose 0.08 uM) was determined as 0.075; in test [2] (dose 0.40 uM), 0.196; in test [2] (dose 2.00 uM), 0.125; in test [2] (dose 10.00 uM), 0.071. In addition, the “Dose.FC.LYZ.NS (log2 fold change)” value in test [3] (primary screen, dose 0.08 uM) amounted to 0.046; in test [3] (primary screen, dose 0.40 uM), 0.061; in test [3] (primary screen, dose 2.00 uM) it was 0.117; in test [3] (primary screen, dose 10.00 uM) it was 0.088. For the same molecule, the “Z.LYZ.NS (standard z score)” value in test [3] (primary screen, dose 0.08 uM) turned out to be 0.399; in test [3] (primary screen, dose 0.40 uM), 0.529; in test [3] (primary screen, dose 2.00 uM) it was 1.023; in test [3] (primary screen, dose 10.00 uM), 0.763.

`Cc1cc(OCCCS(C)(=O)=O)cc(C)c1-c1cccc(COc2ccc3c(c2)OC[C@H]3CC(=O)O)c1` [TAK-875]: the Dose.FC.CTG was 0.239 log2 fold change in test [1] (setting [4]), −0.164 log2 fold change in test [1] (setting [5]), −0.157 log2 fold change in test [1] (setting [6]) and −0.291 log2 fold change in test [1] (setting [7]). The Dose.FC.LYZ.S was 0.212 log2 fold change in test [2] (setting [8]), 0.014 log2 fold change in test [2] (setting [9]), −0.031 log2 fold change in test [2] (setting [10]) and −0.060 log2 fold change in test [2] (setting [11]). In addition, the Dose.FC.LYZ.NS is 0.096 log2 fold change in test [3] (setting [4]), 0.023 log2 fold change in test [3] (setting [5]), −0.043 log2 fold change in test [3] (setting [6]) and −0.138 log2 fold change in test [3] (setting [7]). Also, the Z.LYZ.NS was 0.839 in test [3] (setting [12]), 0.199 in test [3] (setting [13]), −0.378 in test [3] (setting [14]) and −1.199 in test [3] (setting [15]).

Turning to `COc1ccccc1OCCNCC(O)COc1cccc2[nH]c3ccccc3c12` (stereo not drawn) [Carvedilol], the Dose.FC.CTG was 0.057 log2 fold change in test [1] (primary screen, dose 0.08 uM); −0.014 log2 fold change in test [1] (primary screen, dose 0.40 uM); −0.151 log2 fold change in test [1] (primary screen, dose 2.00 uM); −0.242 log2 fold change in test [1] (primary screen, dose 10.00 uM). Further, the Dose.FC.LYZ.S in test [2] (dose 0.08 uM) was −0.009 log2 fold change; in test [2] (dose 0.40 uM), −0.079 log2 fold change; in test [2] (dose 2.00 uM) it was −0.087 log2 fold change; in test [2] (dose 10.00 uM) it was 0.019 log2 fold change. The Dose.FC.LYZ.NS in test [3] (primary screen, dose 0.08 uM) is recorded as 0.002 log2 fold change; in test [3] (primary screen, dose 0.40 uM) it was −0.020 log2 fold change; in test [3] (primary screen, dose 2.00 uM), 0.099 log2 fold change; in test [3] (primary screen, dose 10.00 uM) it was −0.053 log2 fold change. Also, the Z.LYZ.NS in test [3] (setting [16]) was 0.021; in test [3] (setting [17]), −0.175; in test [3] (setting [18]) it was 0.866; in test [3] (setting [19]) it was −0.464.

Turning to `COc1cc(Nc2ncc(F)c(Nc3ccc4c(n3)N(COP(=O)(O)O)C(=O)C(C)(C)O4)n2)cc(OC)c1OC` [Fostamatinib (R788)], the Dose.FC.CTG was 0.232 log2 fold change in test [1] (primary screen, dose 0.08 uM); −0.052 log2 fold change in test [1] (primary screen, dose 0.40 uM); −0.231 log2 fold change in test [1] (primary screen, dose 2.00 uM); −0.881 log2 fold change in test [1] (primary screen, dose 10.00 uM). For the same molecule, the Z.CTG in test [1] (setting [16]) is 0.554; in test [1] (setting [17]), −0.123; in test [1] (setting [18]), −0.552; in test [1] (setting [19]) it was −2.105. In addition, the Dose.FC.LYZ.S in test [2] (dose 0.08 uM) is given as 0.235 log2 fold change; in test [2] (dose 0.40 uM), 0.156 log2 fold change; in test [2] (dose 2.00 uM) it was −0.015 log2 fold change; in test [2] (dose 10.00 uM), −0.350 log2 fold change. In addition, the Dose.FC.LYZ.NS in test [3] (primary screen, dose 0.08 uM) was 0.119 log2 fold change; in test [3] (primary screen, dose 0.40 uM) it was −0.025 log2 fold change; in test [3] (primary screen, dose 2.00 uM), −0.099 log2 fold change; in test [3] (primary screen, dose 10.00 uM) it was −0.234 log2 fold change. Moreover, the Z.LYZ.NS is recorded as 1.033 in test [3] (setting [16]), −0.217 in test [3] (setting [17]), −0.860 in test [3] (setting [18]) and −2.036 in test [3] (setting [19]).

As for `CC(NC(=O)c1ccccc1/N=C/c1c(O)ccc2ccccc12)c1ccccc1` (stereo not drawn) [Sirtinol], the Dose.FC.CTG is −0.218 log2 fold change in test [1] (setting [4]), 0.009 log2 fold change in test [1] (setting [5]), −0.120 log2 fold change in test [1] (setting [6]) and −0.078 log2 fold change in test [1] (setting [7]). The Dose.FC.LYZ.S in test [2] (setting [8]) was found to be 0.077 log2 fold change; in test [2] (setting [9]), 0.088 log2 fold change; in test [2] (setting [10]), 0.028 log2 fold change; in test [2] (setting [11]), 0.026 log2 fold change. The Dose.FC.LYZ.NS in test [3] (setting [4]) turned out to be 0.095 log2 fold change; in test [3] (setting [5]), 0.000 log2 fold change; in test [3] (setting [6]), 0.061 log2 fold change; in test [3] (setting [7]) it was 0.078 log2 fold change. In addition, the Z.LYZ.NS was determined as 0.824 in test [3] (setting [12]), 0.002 in test [3] (setting [13]), 0.531 in test [3] (setting [14]) and 0.679 in test [3] (setting [15]).

For the molecule `Cc1nnc(C(=O)NC(C)(C)c2nc(C(=O)NCc3ccc(F)cc3)c(O)c(=O)n2C)o1` [Raltegravir (MK-0518)], the Dose.FC.CTG in test [1] (setting [4]) was 0.108 log2 fold change; in test [1] (setting [5]) it was 0.094 log2 fold change; in test [1] (setting [6]), 0.197 log2 fold change; in test [1] (setting [7]), 0.170 log2 fold change. Further, the Z.CTG came out at 0.258 in test [1] (setting [12]), 0.224 in test [1] (setting [13]), 0.471 in test [1] (setting [14]) and 0.407 in test [1] (setting [15]). Further, the Dose.FC.LYZ.S was determined as 0.137 log2 fold change in test [2] (setting [8]), 0.037 log2 fold change in test [2] (setting [9]), 0.122 log2 fold change in test [2] (setting [10]) and 0.183 log2 fold change in test [2] (setting [11]). Further, the Dose.FC.LYZ.NS in test [3] (setting [4]) is 0.187 log2 fold change; in test [3] (setting [5]) it was 0.035 log2 fold change; in test [3] (setting [6]), 0.029 log2 fold change; in test [3] (setting [7]), 0.042 log2 fold change. Moreover, the Z.LYZ.NS came to 1.627 in test [3] (setting [12]), 0.302 in test [3] (setting [13]), 0.254 in test [3] (setting [14]) and 0.366 in test [3] (setting [15]).

`C[C@H](Oc1cc(-c2cnn(C3CCNCC3)c2)cnc1N)c1c(Cl)ccc(F)c1Cl` [(S)-crizotinib]: the “SSMD.CTG.Rep (strictly standardized mean difference)” value in test [1] (setting [20]) came to 0.742; in test [1] (setting [21]), 0.190; in test [1] (setting [22]), 0.285; in test [1] (setting [23]) it was 0.034. Moreover, the Dose.FC.CTG stood at 0.241 log2 fold change in test [1] (primary screen, dose 0.08 uM); 0.054 log2 fold change in test [1] (primary screen, dose 0.40 uM); 0.111 log2 fold change in test [1] (primary screen, dose 2.00 uM); 0.019 log2 fold change in test [1] (primary screen, dose 10.00 uM). The “Z.CTG (standard z score)” value in test [1] (primary screen, dose 0.08 uM) is recorded as 0.575; in test [1] (primary screen, dose 0.40 uM) it was 0.130; in test [1] (primary screen, dose 2.00 uM), 0.266; in test [1] (primary screen, dose 10.00 uM), 0.046. For the same molecule, the “SSMD.LYZ.S_Rep (strictly standardized mean difference)” value in test [2] (setting [24]) is given as 0.881; in test [2] (setting [25]), 0.084; in test [2] (setting [26]) it was −0.343; in test [2] (setting [27]), −0.491. In addition, the “Z.LYZ.S (standard z score)” value in test [2] (setting [24]) is listed as 0.808; in test [2] (setting [25]), 0.103; in test [2] (setting [26]), −0.383; in test [2] (setting [27]) it was −0.720. The Dose.FC.LYZ.S was 0.125 log2 fold change in test [2] (dose 0.08 uM), 0.016 log2 fold change in test [2] (dose 0.40 uM), −0.059 log2 fold change in test [2] (dose 2.00 uM) and −0.111 log2 fold change in test [2] (dose 10.00 uM). The “SSMD.LYZ.NS_Rep (strictly standardized mean difference)” value in test [3] (setting [20]) is 0.838; in test [3] (setting [21]) it was 0.094; in test [3] (setting [22]), −0.229; in test [3] (setting [23]), −0.438. In addition, the Dose.FC.LYZ.NS in test [3] (primary screen, dose 0.08 uM) is 0.193 log2 fold change; in test [3] (primary screen, dose 0.40 uM), 0.009 log2 fold change; in test [3] (primary screen, dose 2.00 uM) it was −0.034 log2 fold change; in test [3] (primary screen, dose 10.00 uM), −0.068 log2 fold change. Besides, the “Z.LYZ.NS (standard z score)” value in test [3] (primary screen, dose 0.08 uM) is listed as 1.679; in test [3] (primary screen, dose 0.40 uM), 0.081; in test [3] (primary screen, dose 2.00 uM), −0.294; in test [3] (primary screen, dose 10.00 uM), −0.588.

For the origin of these results see patent US20220323406A1, “METHODS AND COMPOSITIONS FOR DIFFERENTIATING STEM CELLS” (Massachusetts Institute of Technology, priority 2019, published 2022).
